What is called Ki is a measure of affinity in units of concentration, obtained from inhibition or displacement.

Experimental findings from BindingDB's records for doi:10.1016/j.bmc.2010.08.049 (University of Wisconsin-Milwaukee, 2010) are described below.

In assay [1] the target is T1, GABA-A receptor; alpha-5/beta-3/gamma-2 (Homo sapiens, UniProt P31644+P18507+P28472).
T1 sequence (P31644 whole entry): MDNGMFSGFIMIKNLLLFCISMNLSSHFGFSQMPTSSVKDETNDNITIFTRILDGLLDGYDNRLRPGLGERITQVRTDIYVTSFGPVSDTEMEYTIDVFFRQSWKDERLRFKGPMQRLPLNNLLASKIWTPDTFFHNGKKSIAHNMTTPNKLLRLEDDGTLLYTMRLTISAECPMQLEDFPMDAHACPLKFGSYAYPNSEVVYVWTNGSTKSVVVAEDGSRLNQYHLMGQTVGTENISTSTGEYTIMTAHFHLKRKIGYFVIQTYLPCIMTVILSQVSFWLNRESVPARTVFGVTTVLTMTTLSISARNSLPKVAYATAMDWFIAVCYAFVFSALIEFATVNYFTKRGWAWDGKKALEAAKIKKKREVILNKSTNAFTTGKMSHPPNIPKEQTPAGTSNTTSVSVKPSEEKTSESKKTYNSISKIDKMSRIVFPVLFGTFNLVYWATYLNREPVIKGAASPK
T1 sequence (P18507 whole entry): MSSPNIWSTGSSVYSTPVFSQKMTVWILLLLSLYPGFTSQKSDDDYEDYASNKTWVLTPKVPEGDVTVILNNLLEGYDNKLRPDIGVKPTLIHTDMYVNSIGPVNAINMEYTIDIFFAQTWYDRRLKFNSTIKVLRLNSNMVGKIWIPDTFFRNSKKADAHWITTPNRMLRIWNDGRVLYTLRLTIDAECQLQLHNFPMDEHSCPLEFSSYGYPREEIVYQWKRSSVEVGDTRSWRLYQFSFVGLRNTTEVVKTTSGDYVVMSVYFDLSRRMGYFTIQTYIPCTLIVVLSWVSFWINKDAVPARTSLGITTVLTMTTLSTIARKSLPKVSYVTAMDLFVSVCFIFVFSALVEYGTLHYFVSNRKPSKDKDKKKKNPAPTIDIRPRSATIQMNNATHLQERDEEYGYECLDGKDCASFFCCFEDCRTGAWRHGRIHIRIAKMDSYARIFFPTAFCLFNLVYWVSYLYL
T1 sequence (P28472 whole entry): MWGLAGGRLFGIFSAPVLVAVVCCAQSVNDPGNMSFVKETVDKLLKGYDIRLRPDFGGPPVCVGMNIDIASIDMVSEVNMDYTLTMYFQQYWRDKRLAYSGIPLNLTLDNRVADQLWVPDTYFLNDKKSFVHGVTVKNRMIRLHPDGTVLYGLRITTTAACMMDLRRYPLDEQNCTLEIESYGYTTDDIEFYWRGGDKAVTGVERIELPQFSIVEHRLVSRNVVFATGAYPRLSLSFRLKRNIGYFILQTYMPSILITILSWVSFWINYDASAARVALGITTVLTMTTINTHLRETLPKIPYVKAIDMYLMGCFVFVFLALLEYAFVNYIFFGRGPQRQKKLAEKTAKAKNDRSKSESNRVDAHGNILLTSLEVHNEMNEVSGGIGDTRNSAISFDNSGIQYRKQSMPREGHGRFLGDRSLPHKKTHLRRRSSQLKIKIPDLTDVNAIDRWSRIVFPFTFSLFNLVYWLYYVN
Description: Displacement of [3H]flunitrazepam from human recombinant GABAA alpha-5-beta-3-gamma-2 receptor expressed in HEK cells by liquid scintillation counting. For orientation: Loss of bound radioactivity is the signal in a displacement assay; it reports binding, not function.

In assay [2] the target is Gamma-aminobutyric acid receptor subunit alpha-6/beta-3/gamma-2 (Homo sapiens, UniProt Q16445+P18507+P28472). Description: Displacement of [3H]flunitrazepam from human recombinant GABAA alpha-6-beta-3-gamma-2 receptor expressed in HEK cells by liquid scintillation counting.
The target of assay [3] is GABA A receptor alpha-4/beta-3/gamma-2 (Homo sapiens, UniProt P48169+P18507+P28472). Description: Displacement of [3H]flunitrazepam from human recombinant GABAA alpha-4-beta-3-gamma-2 receptor expressed in HEK cells by liquid scintillation counting.
The target of assay [4] is T2, GABA-A receptor; alpha-2/beta-3/gamma-2 (Homo sapiens, UniProt P47869+P18507+P28472).
T2 sequence (P47869 whole entry): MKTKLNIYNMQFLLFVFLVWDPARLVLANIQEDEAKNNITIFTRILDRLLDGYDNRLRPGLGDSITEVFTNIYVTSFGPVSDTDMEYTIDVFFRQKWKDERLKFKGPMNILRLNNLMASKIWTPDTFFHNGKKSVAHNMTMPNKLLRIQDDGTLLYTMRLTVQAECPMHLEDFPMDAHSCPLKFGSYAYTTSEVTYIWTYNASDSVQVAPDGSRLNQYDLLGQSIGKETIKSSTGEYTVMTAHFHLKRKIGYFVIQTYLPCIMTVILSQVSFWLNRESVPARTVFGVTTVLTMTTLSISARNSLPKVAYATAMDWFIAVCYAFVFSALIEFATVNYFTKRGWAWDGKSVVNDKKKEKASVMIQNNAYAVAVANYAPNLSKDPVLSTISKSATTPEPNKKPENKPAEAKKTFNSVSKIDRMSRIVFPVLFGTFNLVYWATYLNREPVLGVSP
T2 sequence (P18507 whole entry): T1 sequence (P18507 whole entry)
T2 sequence (P28472 whole entry): T1 sequence (P28472 whole entry)
Nature of the assay: Displacement of [3H]flunitrazepam from human recombinant GABAA alpha-2-beta-3-gamma-2 receptor expressed in HEK cells by liquid scintillation counting.

Assay [5] has as its target T3, Gamma-aminobutyric acid receptor subunit alpha-1/beta-3/gamma-2 (Homo sapiens, UniProt P14867+P18507+P28472).
T3 sequence (P14867 whole entry): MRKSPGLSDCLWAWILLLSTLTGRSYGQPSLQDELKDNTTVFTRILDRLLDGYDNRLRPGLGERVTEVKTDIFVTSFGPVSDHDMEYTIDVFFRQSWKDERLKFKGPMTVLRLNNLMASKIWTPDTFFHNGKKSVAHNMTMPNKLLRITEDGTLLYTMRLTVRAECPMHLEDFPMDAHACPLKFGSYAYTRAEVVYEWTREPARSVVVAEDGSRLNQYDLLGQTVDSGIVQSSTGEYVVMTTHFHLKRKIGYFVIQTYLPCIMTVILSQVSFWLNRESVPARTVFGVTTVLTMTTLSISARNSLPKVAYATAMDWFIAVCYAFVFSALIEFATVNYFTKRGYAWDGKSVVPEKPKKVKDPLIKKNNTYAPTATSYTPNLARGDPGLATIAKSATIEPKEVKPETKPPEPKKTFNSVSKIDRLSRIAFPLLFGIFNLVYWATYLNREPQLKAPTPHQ
T3 sequence (P18507 whole entry): T1 sequence (P18507 whole entry)
T3 sequence (P28472 whole entry): T1 sequence (P28472 whole entry)
Description: Displacement of [3H]flunitrazepam from human recombinant GABAA alpha-1-beta-3-gamma-2 receptor expressed in HEK cells by liquid scintillation counting.

In assay [6] the target is T4, Gamma-aminobutyric acid receptor subunit alpha-3/beta-3/gamma-2 (Homo sapiens, UniProt P34903+P18507+P28472).
T4 sequence (P34903 whole entry): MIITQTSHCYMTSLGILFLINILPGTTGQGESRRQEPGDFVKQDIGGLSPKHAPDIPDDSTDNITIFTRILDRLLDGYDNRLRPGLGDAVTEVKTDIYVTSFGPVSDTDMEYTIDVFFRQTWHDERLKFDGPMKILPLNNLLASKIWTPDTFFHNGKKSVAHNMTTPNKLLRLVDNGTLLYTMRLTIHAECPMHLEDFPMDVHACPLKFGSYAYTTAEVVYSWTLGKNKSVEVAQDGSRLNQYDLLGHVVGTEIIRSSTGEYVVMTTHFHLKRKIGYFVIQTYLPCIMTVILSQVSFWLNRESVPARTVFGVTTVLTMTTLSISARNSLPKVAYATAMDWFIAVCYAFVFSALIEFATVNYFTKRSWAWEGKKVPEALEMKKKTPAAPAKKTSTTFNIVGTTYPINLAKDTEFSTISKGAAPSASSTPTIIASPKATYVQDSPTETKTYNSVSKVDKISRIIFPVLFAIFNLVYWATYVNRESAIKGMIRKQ
T4 sequence (P18507 whole entry): T1 sequence (P18507 whole entry)
T4 sequence (P28472 whole entry): T1 sequence (P28472 whole entry)
Description: Displacement of [3H]flunitrazepam from human recombinant GABAA alpha-3-beta-3-gamma-2 receptor expressed in HEK cells by liquid scintillation counting.

Sequence of GABA A receptor alpha-4/beta-3/gamma-2 (P48169 whole entry, one chain of several): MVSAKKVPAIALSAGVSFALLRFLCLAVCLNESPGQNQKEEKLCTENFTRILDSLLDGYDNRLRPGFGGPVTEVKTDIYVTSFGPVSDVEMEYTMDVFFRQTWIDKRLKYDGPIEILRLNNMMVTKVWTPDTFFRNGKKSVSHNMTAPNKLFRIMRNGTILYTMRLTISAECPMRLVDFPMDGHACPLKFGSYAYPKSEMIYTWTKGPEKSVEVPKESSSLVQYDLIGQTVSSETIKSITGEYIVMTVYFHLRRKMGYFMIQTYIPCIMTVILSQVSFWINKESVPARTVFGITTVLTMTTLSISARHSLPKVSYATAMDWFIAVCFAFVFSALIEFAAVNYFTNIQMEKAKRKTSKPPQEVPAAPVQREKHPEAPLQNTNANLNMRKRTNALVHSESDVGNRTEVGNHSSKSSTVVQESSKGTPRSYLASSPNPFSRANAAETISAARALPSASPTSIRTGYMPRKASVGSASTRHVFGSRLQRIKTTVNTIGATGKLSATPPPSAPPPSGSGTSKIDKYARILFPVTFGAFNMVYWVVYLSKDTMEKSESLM
Sequence of Gamma-aminobutyric acid receptor subunit alpha-6/beta-3/gamma-2 (Q16445 whole entry, one chain of several): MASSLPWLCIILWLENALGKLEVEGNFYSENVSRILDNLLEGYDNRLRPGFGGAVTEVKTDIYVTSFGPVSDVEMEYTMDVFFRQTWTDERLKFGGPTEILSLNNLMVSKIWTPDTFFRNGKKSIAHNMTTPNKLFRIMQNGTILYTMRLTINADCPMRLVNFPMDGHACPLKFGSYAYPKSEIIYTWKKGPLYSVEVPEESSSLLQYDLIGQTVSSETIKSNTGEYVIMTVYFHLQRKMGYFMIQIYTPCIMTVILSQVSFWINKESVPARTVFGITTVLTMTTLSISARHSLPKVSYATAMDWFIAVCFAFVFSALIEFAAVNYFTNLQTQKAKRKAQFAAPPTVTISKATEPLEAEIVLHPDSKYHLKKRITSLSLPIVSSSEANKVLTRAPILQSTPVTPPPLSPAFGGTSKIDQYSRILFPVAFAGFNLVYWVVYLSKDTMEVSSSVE

As for `CC(OC(=O)c1cc2c(cn1)[nH]c1ccccc12)C(Cl)(Cl)Cl` (stereo not given) [1,1,1-trichloropropan-2-yl 9H-pyrido[3,4-b]indole-3-carboxylate], the Ki is 2000 nM in assay [1]; 5 µM in assay [2]; 3000 nM in assay [3]; 2000 nM in assay [4]; 2000 nM in assay [5]; 2000 nM in assay [6].
For the molecule `CCC(OC(=O)c1cc2c(cn1)[nH]c1ccccc12)C(F)(F)F` (stereo not given) [1,1,1-trifluorobutan-2-yl 9H-pyrido[3,4-b]indole-3-carboxylate], the Ki in assay [1], in assay [4], in assay [5] and in assay [6] was 1000 nM each time.
